According to publication PMC3049928 (Archives of biochemistry and biophysics, 2010):

Target: SULT1A1 (human phenol sulfotransferase, human sulfotransferase 1A1) (Homo sapiens, UniProt P50225)
Assay: pNPS assay of PAP sulfation, p-nitrophenol absorbance at […] nm
Type: biochemical

Chain of SULT1A1 (human phenol sulfotransferase, human sulfotransferase 1A1) (P50225 whole entry): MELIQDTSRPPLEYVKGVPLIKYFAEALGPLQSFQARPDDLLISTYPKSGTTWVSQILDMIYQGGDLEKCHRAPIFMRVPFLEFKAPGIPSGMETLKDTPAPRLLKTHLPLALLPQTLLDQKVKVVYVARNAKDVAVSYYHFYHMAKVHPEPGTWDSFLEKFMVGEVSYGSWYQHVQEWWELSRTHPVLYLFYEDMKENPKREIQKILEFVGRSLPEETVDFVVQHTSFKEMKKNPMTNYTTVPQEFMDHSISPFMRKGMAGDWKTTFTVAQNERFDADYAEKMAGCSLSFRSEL

Ki: 2600 ± 200 nM
Compound: Oc1ccc2ccccc2c1 [2-naphthol]
